Reference: PubChem BioAssay AID2060614 (Molecular Pharmacology Branch, DTP, NCI, 2025)
Several values for one entry are separate records, joined by “and”; a condition that tells them apart may be missing. Equal entries are not always repeated.

Test system: 598228-144-R-J1-PDC complex spheroids, viability
Assay: Anticancer human tumor 598228-144-R-J1-PDC patient-derived serous endometrial adenocarcinoma cell line growth inhibition [CLK]
Conditions: for viability, T/C: stronger effect = lower value
Procedure, shortened: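 Patient-derived tumor cells grown as complex spheroids with HUVEC endothelial cells and mesenchymal stem cells, treated with drug combinations. Concentrations descend in half-log steps from near clinical Cmax, or from 10 microM if Cmax unknown.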
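Further: spheroids exposed to compounds for seven days before readout.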
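Wherever viability, T/C is given: 100% = DMSO vehicle control wells.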

CCCS(=O)(=O)Nc1ccc(F)c(C(=O)c2c[nH]c3ncc(-c4ccc(Cl)cc4)cc23)c1F was tested, and the viability, T/C (compound 0.0316 µM) was 95.3% and 98.7%, the viability, T/C (compound 0.1 µM) was 119% and 92.2% and the viability, T/C (compound 0.316 µM) was 92.5% and 90.5%. For the same molecule, the viability, T/C (compound 1 µM) was 106% and 90.1%, the viability, T/C (compound 3.16 µM) was 89.6% and 81.8% and the viability, T/C (compound 10 µM) was 55.9% and 44.1%. The IC50 (curve of compound) was > 10 µM and 8.39 µM.

C=C(F)C(=O)N1CCN(c2nc(OCC3CCCN3C)nc3c2CCN(c2cccc4cccc(Cl)c24)C3)CC1CC#N (centres undefined) + CNC(=O)c1ccc(Nc2nc(OC3CCCC3)c3c(-c4ccc5nc(C)oc5c4)c[nH]c3n2)c(OC)c1 was tested, and the IC50 (curve of first compound, second compound 0.0316 µM) was 5.08 µM, the IC50 (curve of first compound, second compound 0.1 µM) was 5.07 µM and the IC50 (curve of first compound, second compound 0.316 µM) was 5.08 µM. For the same molecule, the IC50 (curve of first compound, second compound 1 µM) was 4.6 µM, the IC50 (curve of first compound, second compound 3.16 µM) was 4.83 µM and the IC50 (curve of first compound, second compound 10 µM) was 4.05 µM. It also gave a viability, T/C (second compound 0.0316 µM, first compound 0.0316 µM) of 108%, a viability, T/C (second compound 0.0316 µM, first compound 0.1 µM) of 115% and a viability, T/C (second compound 0.0316 µM, first compound 0.316 µM) of 98.6%. It also gave a viability, T/C (second compound 0.0316 µM, first compound 1 µM) of 99.7%, a viability, T/C (second compound 0.0316 µM, first compound 3.16 µM) of 85.7% and a viability, T/C (second compound 0.0316 µM, first compound 10 µM) of 1.18%. It also gave a viability, T/C (second compound 0.1 µM, first compound 0.0316 µM) of 104%, a viability, T/C (second compound 0.1 µM, first compound 0.1 µM) of 101% and a viability, T/C (second compound 0.1 µM, first compound 0.316 µM) of 96.2%. For the same molecule, the viability, T/C (second compound 0.1 µM, first compound 1 µM) was 97.7%, the viability, T/C (second compound 0.1 µM, first compound 3.16 µM) was 81.5% and the viability, T/C (second compound 0.1 µM, first compound 10 µM) was 4.78%. It also gave a viability, T/C (second compound 0.316 µM, first compound 0.0316 µM) of 102%, a viability, T/C (second compound 0.316 µM, first compound 0.1 µM) of 98.6% and a viability, T/C (second compound 0.316 µM, first compound 0.316 µM) of 89.3%. For the same molecule, the viability, T/C (second compound 0.316 µM, first compound 1 µM) was 107%, the viability, T/C (second compound 0.316 µM, first compound 3.16 µM) was 83.9% and the viability, T/C (second compound 0.316 µM, first compound 10 µM) was 1.64%. For the same molecule, the viability, T/C (second compound 1 µM, first compound 0.0316 µM) was 100%, the viability, T/C (second compound 1 µM, first compound 0.1 µM) was 89.7% and the viability, T/C (second compound 1 µM, first compound 0.316 µM) was 89.3%. It also gave a viability, T/C (second compound 1 µM, first compound 1 µM) of 92.4%, a viability, T/C (second compound 1 µM, first compound 3.16 µM) of 72.9% and a viability, T/C (second compound 1 µM, first compound 10 µM) of 2.52%. For the same molecule, the viability, T/C (second compound 3.16 µM, first compound 0.0316 µM) was 85.3%, the viability, T/C (second compound 3.16 µM, first compound 0.1 µM) was 90.9% and the viability, T/C (second compound 3.16 µM, first compound 0.316 µM) was 92.9%. The viability, T/C (second compound 3.16 µM, first compound 1 µM) was 91.1%, the viability, T/C (second compound 3.16 µM, first compound 3.16 µM) was 77.3% and the viability, T/C (second compound 3.16 µM, first compound 10 µM) was 3.14%. For the same molecule, the viability, T/C (second compound 10 µM, first compound 0.0316 µM) was 86.3%, the viability, T/C (second compound 10 µM, first compound 0.1 µM) was 82.7% and the viability, T/C (second compound 10 µM, first compound 0.316 µM) was 83.4%. The viability, T/C (second compound 10 µM, first compound 1 µM) was 80.8%, the viability, T/C (second compound 10 µM, first compound 3.16 µM) was 62.8% and the viability, T/C (second compound 10 µM, first compound 10 µM) was 3.36%.
